From the NIST ThermoML archive (doi:10.1016/j.fluid.2006.07.015)
± gives the expanded uncertainty stated by the source.

Legend:
[1] = Crystal; visual observation
[2] = activity coefficient (dimensionless); of the first substance listed, at infinite dilution; xn = mol fraction of the nth substance listed; conditions: 101 kPa, Liquid, Chromatography, x1 = 0

Structure (SMILES)	Normal melting temperature [1]	activity coefficient ([2]; 373.15 K)	activity coefficient ([2]; 388.15 K)	activity coefficient ([2]; 403.15 K)	activity coefficient ([2]; 418.15 K)	activity coefficient ([2]; 433.15 K)
CCCCCCCCCCCCCCCCCCC(CCCCCCCCCCCCCCCCCC)CCCCC(CCCCCCCCCCCCCCCCCC)CCCCCCCCCCCCCCCCCC [19,24-dioctadecyldotetracontane]	72 ± 6 °C					
C1CC[C@@H]2CCC[C@H]2C1 [trans-bicyclo[4.3.0]nonane] + CCCCCCCCCCCCCCCCCCC(CCCCCCCCCCCCCCCCCC)CCCCC(CCCCCCCCCCCCCCCCCC)CCCCCCCCCCCCCCCCCC		0.267 ± 0.036	0.278 ± 0.036	0.276 ± 0.036	0.273 ± 0.036	0.277 ± 0.036
C[C@@H]1CCCC[C@@H]1C [cis-1,2-dimethylcyclohexane] + CCCCCCCCCCCCCCCCCCC(CCCCCCCCCCCCCCCCCC)CCCCC(CCCCCCCCCCCCCCCCCC)CCCCCCCCCCCCCCCCCC		0.271 ± 0.036	0.277 ± 0.036	0.279 ± 0.036	0.28 ± 0.036	0.285 ± 0.036
CCC(C)C(C)CC (stereo unspecified) [3,4-dimethylhexane] + CCCCCCCCCCCCCCCCCCC(CCCCCCCCCCCCCCCCCC)CCCCC(CCCCCCCCCCCCCCCCCC)CCCCCCCCCCCCCCCCCC		0.353 ± 0.035	0.357 ± 0.035	0.36 ± 0.035	0.362 ± 0.035	0.366 ± 0.035
CC(C)C(C)(C)C [2,2,3-trimethylbutane] + CCCCCCCCCCCCCCCCCCC(CCCCCCCCCCCCCCCCCC)CCCCC(CCCCCCCCCCCCCCCCCC)CCCCCCCCCCCCCCCCCC		0.34 ± 0.035	0.345 ± 0.035	0.348 ± 0.035	0.349 ± 0.035	0.355 ± 0.035
CC(C)CC(C)(C)C [2,2,4-trimethylpentane] + CCCCCCCCCCCCCCCCCCC(CCCCCCCCCCCCCCCCCC)CCCCC(CCCCCCCCCCCCCCCCCC)CCCCCCCCCCCCCCCCCC		0.397 ± 0.034	0.401 ± 0.034	0.401 ± 0.034	0.405 ± 0.034	0.406 ± 0.034
CCCCCc1ccccc1 [pentylbenzene] + CCCCCCCCCCCCCCCCCCC(CCCCCCCCCCCCCCCCCC)CCCCC(CCCCCCCCCCCCCCCCCC)CCCCCCCCCCCCCCCCCC		0.378 ± 0.034	0.385 ± 0.034	0.381 ± 0.034	0.38 ± 0.034	0.376 ± 0.034
CCCCCCCCCCCCCC [tetradecane] + CCCCCCCCCCCCCCCCCCC(CCCCCCCCCCCCCCCCCC)CCCCC(CCCCCCCCCCCCCCCCCC)CCCCCCCCCCCCCCCCCC		0.492 ± 0.033	0.493 ± 0.033	0.494 ± 0.033	0.495 ± 0.033	0.495 ± 0.033
C=CCCCCCCCCCCCC [1-tetradecene] + CCCCCCCCCCCCCCCCCCC(CCCCCCCCCCCCCCCCCC)CCCCC(CCCCCCCCCCCCCCCCCC)CCCCCCCCCCCCCCCCCC		0.475 ± 0.033	0.476 ± 0.033	0.475 ± 0.033	0.476 ± 0.033	0.475 ± 0.033
C=CCCCCCCCCCCC [1-tridecene] + CCCCCCCCCCCCCCCCCCC(CCCCCCCCCCCCCCCCCC)CCCCC(CCCCCCCCCCCCCCCCCC)CCCCCCCCCCCCCCCCCC		0.467 ± 0.033	0.466 ± 0.033	0.466 ± 0.033	0.467 ± 0.033	0.468 ± 0.033
C=CCCCCC [1-heptene] + CCCCCCCCCCCCCCCCCCC(CCCCCCCCCCCCCCCCCC)CCCCC(CCCCCCCCCCCCCCCCCC)CCCCCCCCCCCCCCCCCC		0.354 ± 0.035	0.355 ± 0.035	0.356 ± 0.035	0.357 ± 0.035	0.359 ± 0.035
CCCCCCC [heptane] + CCCCCCCCCCCCCCCCCCC(CCCCCCCCCCCCCCCCCC)CCCCC(CCCCCCCCCCCCCCCCCC)CCCCCCCCCCCCCCCCCC		0.361 ± 0.035	0.363 ± 0.035	0.365 ± 0.035	0.367 ± 0.034	0.37 ± 0.03
CC(C)C(C)C(C)C [2,3,4-trimethylpentane] + CCCCCCCCCCCCCCCCCCC(CCCCCCCCCCCCCCCCCC)CCCCC(CCCCCCCCCCCCCCCCCC)CCCCCCCCCCCCCCCCCC		0.353 ± 0.035	0.356 ± 0.035	0.358 ± 0.035	0.36 ± 0.035	0.362 ± 0.035
CCCCCCCCCCCCC [tridecane] + CCCCCCCCCCCCCCCCCCC(CCCCCCCCCCCCCCCCCC)CCCCC(CCCCCCCCCCCCCCCCCC)CCCCCCCCCCCCCCCCCC		0.479 ± 0.033	0.479 ± 0.033	0.479 ± 0.033	0.48 ± 0.033	0.481 ± 0.033
CC(C)CC(C)C [2,4-dimethylpentane] + CCCCCCCCCCCCCCCCCCC(CCCCCCCCCCCCCCCCCC)CCCCC(CCCCCCCCCCCCCCCCCC)CCCCCCCCCCCCCCCCCC		0.391 ± 0.034	0.392 ± 0.034	0.394 ± 0.034	0.396 ± 0.034	0.4 ± 0.034
C1=CCC=CC1 [1,4-cyclohexadiene] + CCCCCCCCCCCCCCCCCCC(CCCCCCCCCCCCCCCCCC)CCCCC(CCCCCCCCCCCCCCCCCC)CCCCCCCCCCCCCCCCCC		0.242 ± 0.036	0.244 ± 0.036	0.242 ± 0.036	0.238 ± 0.036	0.238 ± 0.036
C=CCCCCCCCC [1-decene] + CCCCCCCCCCCCCCCCCCC(CCCCCCCCCCCCCCCCCC)CCCCC(CCCCCCCCCCCCCCCCCC)CCCCCCCCCCCCCCCCCC		0.411 ± 0.034	0.413 ± 0.034	0.413 ± 0.034	0.416 ± 0.034	0.418 ± 0.034
CCCC#CCCC [4-octyne] + CCCCCCCCCCCCCCCCCCC(CCCCCCCCCCCCCCCCCC)CCCCC(CCCCCCCCCCCCCCCCCC)CCCCCCCCCCCCCCCCCC		0.436 ± 0.033	0.429 ± 0.034	0.424 ± 0.034	0.421 ± 0.034	0.416 ± 0.034
CCCCCC [hexane] + CCCCCCCCCCCCCCCCCCC(CCCCCCCCCCCCCCCCCC)CCCCC(CCCCCCCCCCCCCCCCCC)CCCCCCCCCCCCCCCCCC		0.344 ± 0.035	0.346 ± 0.035	0.348 ± 0.035	0.351 ± 0.035	0.355 ± 0.035
C#CCCCC [1-hexyne] + CCCCCCCCCCCCCCCCCCC(CCCCCCCCCCCCCCCCCC)CCCCC(CCCCCCCCCCCCCCCCCC)CCCCCCCCCCCCCCCCCC		0.39 ± 0.034	0.378 ± 0.034	0.37 ± 0.034	0.364 ± 0.035	0.36 ± 0.035
C1CC[C@H]2CCCC[C@@H]2C1 [trans-decahydronaphthalene] + CCCCCCCCCCCCCCCCCCC(CCCCCCCCCCCCCCCCCC)CCCCC(CCCCCCCCCCCCCCCCCC)CCCCCCCCCCCCCCCCCC		0.268 ± 0.036	0.279 ± 0.036	0.283 ± 0.036	0.28 ± 0.036	0.287 ± 0.036
Cc1ccccc1 [toluene] + CCCCCCCCCCCCCCCCCCC(CCCCCCCCCCCCCCCCCC)CCCCC(CCCCCCCCCCCCCCCCCC)CCCCCCCCCCCCCCCCCC		0.284 ± 0.036	0.284 ± 0.036	0.282 ± 0.036	0.278 ± 0.036	0.275 ± 0.036
C#CCCCCCC [1-octyne] + CCCCCCCCCCCCCCCCCCC(CCCCCCCCCCCCCCCCCC)CCCCC(CCCCCCCCCCCCCCCCCC)CCCCCCCCCCCCCCCCCC		0.428 ± 0.034	0.424 ± 0.034	0.417 ± 0.034	0.412 ± 0.034	0.411 ± 0.034
C=CCCCC [hex-1-ene] + CCCCCCCCCCCCCCCCCCC(CCCCCCCCCCCCCCCCCC)CCCCC(CCCCCCCCCCCCCCCCCC)CCCCCCCCCCCCCCCCCC		0.354 ± 0.035	0.355 ± 0.035	0.356 ± 0.035	0.357 ± 0.035	0.359 ± 0.035
C=CCCCCCCC [1-nonene] + CCCCCCCCCCCCCCCCCCC(CCCCCCCCCCCCCCCCCC)CCCCC(CCCCCCCCCCCCCCCCCC)CCCCCCCCCCCCCCCCCC		0.392 ± 0.034	0.394 ± 0.034	0.395 ± 0.034	0.396 ± 0.034	0.398 ± 0.034
CCCCCCCCCCC [undecane] + CCCCCCCCCCCCCCCCCCC(CCCCCCCCCCCCCCCCCC)CCCCC(CCCCCCCCCCCCCCCCCC)CCCCCCCCCCCCCCCCCC		0.436 ± 0.033	0.438 ± 0.033	0.44 ± 0.033	0.442 ± 0.033	0.444 ± 0.033
CCCCC [pentane] + CCCCCCCCCCCCCCCCCCC(CCCCCCCCCCCCCCCCCC)CCCCC(CCCCCCCCCCCCCCCCCC)CCCCCCCCCCCCCCCCCC		0.336 ± 0.035	0.338 ± 0.035	0.341 ± 0.035	0.345 ± 0.035	0.349 ± 0.035
C#CCCCCC [1-heptyne] + CCCCCCCCCCCCCCCCCCC(CCCCCCCCCCCCCCCCCC)CCCCC(CCCCCCCCCCCCCCCCCC)CCCCCCCCCCCCCCCCCC		0.411 ± 0.034	0.407 ± 0.034	0.401 ± 0.034	0.399 ± 0.034	0.398 ± 0.034
C=CCCCCCCCCCC [1-dodecene] + CCCCCCCCCCCCCCCCCCC(CCCCCCCCCCCCCCCCCC)CCCCC(CCCCCCCCCCCCCCCCCC)CCCCCCCCCCCCCCCCCC		0.447 ± 0.033	0.449 ± 0.033	0.453 ± 0.033	0.453 ± 0.033	0.455 ± 0.033
